pIC50: −log10 of the molar value.

Common to all, as to type: biochemical
Experiment [1] addresses T1, recombinant soluble tissue factor and recombinant human factor VIIa (TF-VIIa) (Homo sapiens, UniProt P08709).
T1 construct: conversion of coagulation factor VII to VIIa by factor Xa; purchased American Diagnostica, Greenwich CT; host or cells: soluble TF made in house in E. coli
The experiment is described as follows: TF-VIIa assay (chromogenic substrate hydrolysis). Conditions: reported only as less than or greater than 0.1 uM. The procedure, abridged:
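Chromogenic read at OD405, compared with control for percent inhibition. Substrate N-methylsulfonyl-D-phe-gly-arg-p-nitroaniline at 0.4 mM is cleaved by recombinant human VIIa (2 nM) complexed with soluble TF (100 nM). Buffer: pH 8.0 Tris-HCl 50 mM, CaCl2 5 mM, NaCl 100 mM, BSA 0.1%.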

In another experiment the target is T2, Human factor Xa (Homo sapiens, UniProt P00742).
T2 construct: purchased Enzyme Research Laboratories, South Bend Ind
T2 sequence (P00742 235-488 limits assumed): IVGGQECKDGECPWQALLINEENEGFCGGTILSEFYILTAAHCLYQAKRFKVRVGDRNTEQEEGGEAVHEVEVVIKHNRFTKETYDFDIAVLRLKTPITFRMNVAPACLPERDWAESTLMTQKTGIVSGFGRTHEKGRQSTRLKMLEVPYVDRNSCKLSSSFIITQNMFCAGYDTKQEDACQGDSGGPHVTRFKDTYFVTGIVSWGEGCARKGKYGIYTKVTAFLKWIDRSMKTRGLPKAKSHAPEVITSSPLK
T2 sequence (P00742 41-179 limits assumed): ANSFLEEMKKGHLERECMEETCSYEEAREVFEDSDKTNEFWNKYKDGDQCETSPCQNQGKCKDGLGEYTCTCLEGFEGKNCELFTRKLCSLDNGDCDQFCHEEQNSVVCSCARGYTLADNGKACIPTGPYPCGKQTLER
The experiment is described as follows: Xa assay (chromogenic substrate S-2765). Conditions: reported only as less than or greater than 30 uM; read-out: Factor Xa (II) IC50. In outline: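 Chromogenic readout: S-2765 hydrolysis (0.15 mM) by 0.3 nM human FXa was monitored at 405 nm after 60 min at room temperature, with a time-zero background read. Buffer: 50 mM Tris-HCl, pH 8.0, 100 mM NaCl, 0.1% BSA. Inhibition is relative to buffer-only controls.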

A further experiment has as its target T3, Human thrombin (Homo sapiens, UniProt P00734).
T3 construct: converts prothrombin (II) to thrombin (IIa); purchased Calbiochem, La Jolla, Calif
The experiment is described as follows: Thrombin assay (chromogenic substrate). Particulars: reported only as less than or greater than 30 uM; read-out: Thrombin (II) IC50. In outline:
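Percent inhibition derived by comparing OD405 nm of compound-treated and control samples. Thrombin cleavage of a p-nitroanilide chromogenic substrate provides the signal.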

In experiment [2] the test system is Normal human pooled plasma. The experiment is described as follows: Prothrombin time (PT) clotting assay. Conditions: concentration at which prothrombin time is prolonged by 2x normal, reported as less than or greater than 50 uM. In outline:
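Normal human pooled plasma incubated with 100 uM compound or saline, then thromboplastin (human tissue factor) added and clotting time recorded in a coagulation machine. Compounds exceeding 3× normal PT (11.0 s) are titrated to find the concentration doubling PT.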

T1 sequence (P08709 213-466 limits assumed): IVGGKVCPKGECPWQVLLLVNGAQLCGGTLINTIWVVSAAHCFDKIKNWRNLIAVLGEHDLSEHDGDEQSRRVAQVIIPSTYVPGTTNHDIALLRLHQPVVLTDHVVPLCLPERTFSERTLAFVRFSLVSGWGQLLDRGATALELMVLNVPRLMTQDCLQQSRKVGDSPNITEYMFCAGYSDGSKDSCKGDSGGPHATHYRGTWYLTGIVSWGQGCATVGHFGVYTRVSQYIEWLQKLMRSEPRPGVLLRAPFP
T1 sequence (P08709 61-212 limits assumed): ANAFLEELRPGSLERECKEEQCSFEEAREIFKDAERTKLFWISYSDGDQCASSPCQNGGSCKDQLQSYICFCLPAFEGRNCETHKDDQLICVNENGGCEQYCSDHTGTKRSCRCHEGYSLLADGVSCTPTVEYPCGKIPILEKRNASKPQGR
T1 sequence (P13726 33-251 partner limits assumed): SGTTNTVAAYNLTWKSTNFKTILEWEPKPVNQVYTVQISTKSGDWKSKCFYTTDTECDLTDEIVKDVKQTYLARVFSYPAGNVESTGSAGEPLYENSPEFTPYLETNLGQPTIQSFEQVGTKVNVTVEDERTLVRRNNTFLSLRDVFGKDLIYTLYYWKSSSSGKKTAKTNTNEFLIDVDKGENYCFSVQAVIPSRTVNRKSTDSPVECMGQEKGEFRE

As for `COC(=O)c1cc(N)cc(-c2c(Br)nc(NC(C)C)c(=O)n2CC(=O)NCc2ccc(C(=N)N)cc2)c1` [Example 4, Methyl 3-amino-5-[1-[2-({4-[amino(imino)methyl]benzyl}amino)-2-oxoethyl]-3-bromo-5-(isopropylamino)-6-oxo-1,6-dihydropyrazin-2-yl]benzoate], the pIC50 in experiment [1] is greater than 7.00; on Human factor Xa, less than 4.52; at Human thrombin, less than 4.52. Also, the “PT (Prothrombin time) 2xPT” value in experiment [2] is greater than 50.0 µM.

For the molecule `CCS(=O)(=O)c1cc(N)cc(-c2cnc(NC(C)C)c(=O)n2CC(=O)NCc2ccc(C(=N)N)cc2)c1.O=C(O)C(F)(F)F.O=C(O)C(F)(F)F` [Example 232], the pIC50 in experiment [1] is greater than 7.00; at Human factor Xa, less than 4.52; at Human thrombin, less than 4.52. For the same molecule, the “PT (Prothrombin time) 2xPT” value in experiment [2] is less than 50.0 µM.

Regarding `CCCCOC(=O)c1cc(N)cc(-c2cnc(NC(C)C)c(=O)n2CC(=O)NCc2ccc(C(=N)N)cc2)c1.O=C(O)C(F)(F)F` [Example 187], the pIC50 in experiment [1] is greater than 7.00; at Human factor Xa, less than 4.52; at Human thrombin, less than 4.52. Moreover, in experiment [2], the “PT (Prothrombin time) 2xPT” value was less than 50.0 µM.

Turning to `CC(C)CCNc1cc(N)cc(-c2cnc(NC(C)C)c(=O)n2CC(=O)NCc2ccc(C(=N)N)cc2)c1` [Example 102], the pIC50 was greater than 7.00 in experiment [1], less than 4.52 at Human factor Xa and greater than 4.52 at Human thrombin. Further, the “PT (Prothrombin time) 2xPT” value in experiment [2] is less than 50.0 µM.

Regarding `CC(C)Nc1ncc(-c2cc(N)cc(OC(=O)C3CC3)c2)n(CC(=O)NCc2ccc(C(=N)N)cc2)c1=O.O=C(O)C(F)(F)F.O=C(O)C(F)(F)F` [Example 238], the pIC50 in experiment [1] is greater than 7.00; at Human factor Xa, less than 4.52; on Human thrombin, less than 4.52. In addition, the “PT (Prothrombin time) 2xPT” value in experiment [2] was less than 50.0 µM.

In the case of `CC(C)Nc1ncc(-c2cc(N)cc(C(=O)NCc3ccc(F)c(O)c3)c2)n(CC(=O)NCc2ccc(C(=N)N)cc2)c1=O.O=C(O)C(F)(F)F` [Example 186], the pIC50 in experiment [1] was greater than 7.00; at Human factor Xa, less than 4.52; at Human thrombin, less than 4.52. For the same molecule, the “PT (Prothrombin time) 2xPT” value in experiment [2] is less than 50.0 µM.

`CC(C)Nc1ncc(-c2cc(N)cc(C(=O)N[C@H](C)c3ccccc3)c2)n(CC(=O)NCc2ccc(C(=N)N)cc2)c1=O` [Example 58]: the pIC50 in experiment [1] was greater than 7.00; on Human factor Xa, less than 4.52; on Human thrombin, greater than 4.52. Besides, in experiment [2], the “PT (Prothrombin time) 2xPT” value is less than 50.0 µM.

On to `CC(C)Nc1ncc(-c2cc(N)cc(C(F)(F)F)c2)n(CC(=O)NCc2ccc(C(=N)N)cc2)c1=O` [Example 18], for which the pIC50 in experiment [1] was greater than 7.00; at Human factor Xa, less than 4.52; on Human thrombin it was less than 4.52. Also, the “PT (Prothrombin time) 2xPT” value in experiment [2] was less than 50.0 µM.

Consider `CC(C)Nc1ncc(-c2cc(N)cc(-c3nnn[nH]3)c2)n(CC(=O)NCc2ccc(C(=N)N)cc2)c1=O.O=C(O)C(F)(F)F` [Example 227, N-{4-[amino(imino)methyl]benzyl}-2-[6-[3-amino-5-(1H-tetraazol-5-yl)phenyl]-3-(isopropylamino)-2-oxopyrazin-1 (2H)-yl]acetamide], for which the figures for the pIC50 (in experiment [1]; on Human factor Xa; at Human thrombin) were greater than 7.00, less than 4.52 and less than 4.52, respectively. Besides, the “PT (Prothrombin time) 2xPT” value in experiment [2] is less than 50.0 µM.

In the case of `COC(=O)c1ccc(CNC(=O)c2cc(N)cc(-c3cnc(NC(C)C)c(=O)n3CC(=O)NCc3ccc(C(=N)N)cc3)c2)cc1.O=C(O)C(F)(F)F` [Example 169], the pIC50 in experiment [1] is greater than 7.00; on Human factor Xa, less than 4.52; at Human thrombin, greater than 4.52. Besides, in experiment [2], the “PT (Prothrombin time) 2xPT” value was less than 50.0 µM.

`CC(C)Nc1ncc(-c2cc(N)cc(C(=O)NCCCc3ccccc3)c2)n(CC(=O)NCc2ccc(C(=N)N)cc2)c1=O` [Example 62]: the figures for the pIC50 (in experiment [1]; at Human factor Xa; at Human thrombin) were greater than 7.00, less than 4.52 and greater than 4.52, respectively. Besides, the “PT (Prothrombin time) 2xPT” value in experiment [2] was less than 50.0 µM.

`CCC(C)C(=O)Nc1cc(N)cc(-c2cnc(NC(C)C)c(=O)n2CC(=O)NCc2ccc(C(=N)N)cc2)c1.O=C(O)C(F)(F)F.O=C(O)C(F)(F)F` (stereo not drawn) [Example 131]: the pIC50 in experiment [1] is greater than 7.00; at Human factor Xa, less than 4.52; on Human thrombin, greater than 4.52. The “PT (Prothrombin time) 2xPT” value in experiment [2] is less than 50.0 µM.

Turning to `CC[C@@H](C)NC(=O)c1cc(N)cc(-c2cnc(NC(C)C)c(=O)n2CC(=O)NCc2c(F)c(O)c(C(=N)N)c(F)c2F)c1.Cl.Cl` [Example 185, 3-[1-[2-({4-[amino(imino)methyl]-2,3,6-trifluoro-5-hydroxybenzyl}amino)-2-oxoethyl]-5-(isopropylamino)-6-oxo-1,6-dihydropyrazin-2-yl]-N-[(1R)-1-methylpropyl]-5-aminobenzamide Dihydrochloride], the pIC50 in experiment [1] is greater than 7.00; at Human factor Xa, less than 4.52; at Human thrombin it was less than 4.52. Also, the “PT (Prothrombin time) 2xPT” value in experiment [2] was less than 50.0 µM.

Consider `CC(C)Nc1ncc(-c2cc(N)cc(OCC(C)(C)CN(C)C)c2)n(CC(=O)NCc2ccc(C(=N)N)cc2)c1=O.O=C(O)C(F)(F)F.O=C(O)C(F)(F)F` [Example 217], for which the values for the pIC50 (in experiment [1]; on Human factor Xa; on Human thrombin) were greater than 7.00, less than 4.52 and greater than 4.52, respectively. Besides, the “PT (Prothrombin time) 2xPT” value in experiment [2] was less than 50.0 µM.

As for `CC(C)Nc1ncc(-c2cc(N)cc(C(F)(F)F)c2)n(CC(=O)NCc2ccc(C(=N)N)c(O)c2)c1=O` [Example 49], the pIC50 in experiment [1] was less than 7.00; at Human factor Xa, less than 4.52; on Human thrombin, less than 4.52. For the same molecule, the “PT (Prothrombin time) 2xPT” value in experiment [2] is less than 50.0 µM.

Take `CC(C)Nc1ncc(-c2cc(N)cc(NC(=O)c3ccccc3)c2)n(CC(=O)NCc2ccc(C(=N)N)cc2)c1=O` [Example 109]: the pIC50 is greater than 7.00 in experiment [1], less than 4.52 on Human factor Xa and greater than 4.52 on Human thrombin. Further, the “PT (Prothrombin time) 2xPT” value in experiment [2] is less than 50.0 µM.

`CCCc1ccc(C(=O)Nc2cc(N)cc(-c3cnc(NC(C)C)c(=O)n3CC(=O)NCc3ccc(C(=N)N)cc3)c2)cc1` [Example 108]: the pIC50 was greater than 7.00 in experiment [1], less than 4.52 at Human factor Xa and greater than 4.52 on Human thrombin. Also, the “PT (Prothrombin time) 2xPT” value in experiment [2] was less than 50.0 µM.

Consider `COC(=O)c1cc(N)cc(-c2cnc(NC(C)C)c(=O)n2CC(=O)NCc2ccc(C(=N)N)c(O)c2)c1` [Example 77], for which the pIC50 in experiment [1] is less than 7.00; on Human factor Xa, less than 4.52; at Human thrombin, less than 4.52. The “PT (Prothrombin time) 2xPT” value in experiment [2] is less than 50.0 µM.

Take `CCC(CC)C(=O)Nc1cc(N)cc(-c2cnc(NC(C)C)c(=O)n2CC(=O)NCc2ccc(C(=N)N)cc2)c1.O=C(O)C(F)(F)F.O=C(O)C(F)(F)F` [Example 134]: the values for the pIC50 (in experiment [1]; at Human factor Xa; at Human thrombin) were greater than 7.00, less than 4.52 and greater than 4.52, respectively. Moreover, the “PT (Prothrombin time) 2xPT” value in experiment [2] was less than 50.0 µM.

With `CCC(CC)S(=O)(=O)c1cc(N)cc(-c2cnc(NC(C)C)c(=O)n2CC(=O)NCc2ccc(C(=N)N)cc2)c1.O=C(O)C(F)(F)F.O=C(O)C(F)(F)F` [Example 231], the pIC50 was greater than 7.00 in experiment [1], less than 4.52 at Human factor Xa and less than 4.52 at Human thrombin. For the same molecule, in experiment [2], the “PT (Prothrombin time) 2xPT” value is less than 50.0 µM.

As for `CC(C)Nc1ncc(-c2cc(N)cc(C(=O)NCc3cccc(C(F)(F)F)c3)c2)n(CC(=O)NCc2ccc(C(=N)N)cc2)c1=O.O=C(O)C(F)(F)F.O=C(O)C(F)(F)F` [Example 10], the figures for the pIC50 (in experiment [1]; on Human factor Xa; at Human thrombin) were greater than 7.00, less than 4.52 and less than 4.52, respectively. The “PT (Prothrombin time) 2xPT” value in experiment [2] is less than 50.0 µM.

For `CC(C)Nc1ncc(-c2cc(N)cc(C(=O)NCc3ccc(F)cc3)c2)n(CC(=O)NCc2ccc(C(=N)N)c(O)c2)c1=O.O=C(O)C(F)(F)F` [Example 162, 3-amino-5-[1-[2-({4-[amino(imino)methyl]-3-hydroxybenzyl}amino)-2-oxoethyl]-5-(isopropylamino)-6-oxo-1,6-dihydropyrazin-2-yl]-N-(4-fluorobenzyl) benzamide], the negative-log IC50 (pIC50) in experiment [1] is greater than 7.00; on Human factor Xa, less than 4.52; at Human thrombin, less than 4.52. Further, in experiment [2], the “PT (Prothrombin time) 2xPT” value was less than 50.0 µM.

Regarding `CCCCC(CC)C(=O)Nc1cc(N)cc(-c2cnc(NC(C)C)c(=O)n2CC(=O)NCc2ccc(C(=N)N)cc2)c1.O=C(O)C(F)(F)F.O=C(O)C(F)(F)F` (stereo not drawn) [Example 137], the pIC50 in experiment [1] was greater than 7.00; on Human factor Xa, less than 4.52; at Human thrombin, greater than 4.52. Moreover, the “PT (Prothrombin time) 2xPT” value in experiment [2] is less than 50.0 µM.

Take `CCNc1ncc(-c2cc(N)cc(C(=O)N[C@@H](C)CC)c2)n(CC(=O)NCc2ccc(C(=N)N)cc2)c1=O.O=C(O)C(F)(F)F.O=C(O)C(F)(F)F` [Example 194]: the pIC50 is greater than 7.00 in experiment [1], less than 4.52 at Human factor Xa and less than 4.52 at Human thrombin. Besides, in experiment [2], the “PT (Prothrombin time) 2xPT” value is less than 50.0 µM.
